Reference: US20160120186A1, “ENHANCEMENT AND CONTROL OF SEED GERMINATION WITH COMPOSITIONS COMPRISING A TRANSITION METAL CATALYST AND AN OXIDANT” (UNIVERSITY OF SASKATCHEWAN, priority 2013, published 2016)

How the values were obtained:
[1] = Delignification by per-acids (studies by the inventors)
[2] = Microbiocidal properties of per-acids (studies by the inventors)

SMILES | delignification of plant wall material [1] | microbiocidal properties [2]
CC(=O)O[O-].[Na+] [peracetate] | very efficient delignification | very powerful microbiocidal properties
O=COO [performate] | very efficient delignification | very powerful microbiocidal properties
